Source: US20190330167A1, “ACTIVATORS OF HIV LATENCY” (priority 2016, published 2019)

Legend:
[1] = tested on: J.Lat10.6 T-cell line; assay: Dose dependent toxicity in the J.Lat model; format: cell-based; conditions: dosed as high as 40 μM
[2] = tested on: HIV-1 gene expression in J.Lat10.6 latently infected T-cell line; assay: cells; format: cell-based
Protocol: The J.Lat10.6 latently infected T-cell line was treated with 4 compounds of the present invention, DP#6 (Compound 41), DP#14 (Compound 7), DP#18 (Compound 65), and DP#19 (Compound 73) and reactivated for 48 hrs. HIV-1 reactivation was measured by flowcytometry for GFP expression. Error bars represent standard deviation of n=3 experiments.
FIG. 45. […] The J.Lat10.6 model of HIV-1 latency was treated with JQ1 (+) and DP#14 (Compound 7) alone at 10 μM and in combination, and the HIV-1 gene expression measured 48 hrs post treatment. Error bars represent standard deviation of n=3 experiments. OPTI represents media alone, without DP#14.
FIG. 47. […] The J.Lat10.6 model of HIV-1 latency was treated with PFI-1 and DP#14 alone at 10 μM and in combination, and the HIV-1 gene expression measured 48 hrs post treatment. Error bars represent standard deviation of n=3 experiments. OPTI represents media alone, without DP#14.
Compounds were also evaluated in a dose ranging titration with HIV latently infected cell lines (J.Lat 6.3 and 10.6). The specificity of the selected compounds in these cell line models, were measured by inserting a CMV-DS.Red reporter into these cells to co-ordinately measure HIV specific LTR-Green fluorescent protein and non-specific DS.Red expression during FACS analysis.
The J.Lat model of HIV-1 latency is a well-established model used widely and is described in detail in the following paper:
HIV reproducibly establishes a latent infection after acute infection of T cells in vitro, Eric Verdin et al, The EMBO Journal Vol. 22 No. 8 pp 1868-1877, 2003

For O=C(CCCOc1ccccc1)Nc1ncc(Br)s1 [Compound 7], the dose dependent toxicity [1] was “no such toxicity”, the IC50 ([2]; Human immunodeficiency virus 1, J-Lat 10.6, 48 h, read-out: IC50 for reactivation of HIV-1 gene expression) was roughly 4.5 µM and the “percent of the cells treated with reactivated HIV-1 gene expression” value ([2]; J.Lat10.6 model, alone at 10 μM and in combination, 48 hrs post treatment) was 2.4%.
